These results are taken from patent US10406169B2, “Methods of monitoring estriol therapy” (The Regents of the University of California, priority 2015, dated 2019).

The test system of the assay is relapsing-remitting multiple sclerosis. The assay can be described thus: Confirmed relapses (annualized relapse rate, time to first relapse). Particulars: for Annualized relapse rate in 12 months, Rate (95% CI) / Annualized relapse rate in 24 months, Rate (95% CI): negative binomial regression. The format is in vivo, human. As for the experimental part:
The primary efficacy end point was the annualized relapse rate. A relapse was defined as the appearance of new neurological symptoms or the worsening of pre-existing symptoms, lasting at least 48 hours in a subject who had been neurologically stable or improving in the previous 30 days, accompanied by an objective change in a neurological examination (i.e., a worsening of 0.5 or more points on the EDSS or a worsening by 1.0 or more points on the pyramidal, cerebellar, brainstem or visual functional system scores, not due to fatigue alone and not associated with fever or infection). […] Both treating and examining physicians were unaware of study group assignments. The standard treatment for relapse was a 3-5 day course of glucocorticoids at the discretion of the treating neurologist.
Intention-to-treat analyses were carried out for all end points. […] To control the overall type I error, a sequential testing procedure was applied. […] Consistent with a phase 2 study using a clinical outcome, a p-value<0.10 was considered statistically significant.
For the time to first relapse analysis, Kaplan Meier curves and log-rank test were used to estimate and compare the relapse free probabilities of the two treatment groups. Cox proportional hazards model was used to compare the time to relapse free probabilities between two groups adjusting for covariates. […] The random effect of subject is included in the model to account for within subject correlation.
For the primary endpoint, the main analysis seeks to compare the relapse event rate between treatment groups based on the negative binomial regression. As a sensitivity analysis, recurrent events analysis was performed based on Andersen Gill model to compare the relapse hazard rate between treatment groups.

Turning to glatiramer acetate [Placebo + GA], the “Annualized relapse rate in 12 months, Rate (95% CI)” value was 0.48 (0.33-0.69) and the “Annualized relapse rate in 24 months, Rate (95% CI)” value is 0.37 (0.25-0.53). In addition, under “Kaplan-Meier”, the “Proportion of pts with relapse at 12 months % (95% CI)” value is on record as 33.1 (23.5-45.2) % and the “Proportion of pts with relapse at 24 months % (95% CI)” value is 42.9 (32.1-55.5) %. Further, for the setting “listed as Placebo+GA”, the “Annualized relapse rate in 12 months, Rate (95% CI)” value is reported as 0.48 and the “Annualized relapse rate in 24 months, Rate (95% CI)” value was determined as 0.37.
